Source: PMC11061419, “Identification of novel small molecule inhibitors of twin arginine translocation (Tat) pathway and their effect on the control of Campylobacter jejuni in chickens” (Frontiers in Microbiology, 2024)

What was measured:
[1] = test system: Commensal/beneficial gut bacteria (n = 7); experiment: Activity spectrum against commensal/beneficial gut bacteria at 6.25 μg/mL; assay type: cell-based; settings: 6.25 μg/mL SM; for Commensal/beneficial gut bacteria inhibited at 6.25 μg/mL (species): Ef Enterococcus faecalis, Lb Levilactobacillus brevis, LGG Lacticaseibacillus rhamnosus GG
Method: A similar experiment was performed with seven commensal/beneficial gut bacteria to determine species specificity of these SMs. In brief, an overnight suspension was normalized at 0.05 OD600 using the appropriate medium and challenged with 6.25 μg/mL of SM. Details about the strains and their growing conditions are shown in Supplementary Table S1. Medium alone and 1% DMSO were used as controls (N = 3 replicates per SM).

[2] = test system: C. jejuni (mixture of five strains) in chicken ceca; experiment: C. jejuni persistence in ceca of 5-week-old colonized chickens; assay type: in vivo; settings: for decrease of cecal C. jejuni colonization/load: 3 and 5-week-old chickens, 5-day treatment twice a day, 0.225 mg or 0.127 mg of SM per kg body weight; for reduction in C. jejuni population per gram of cecum compared with the DMSO control group: 5-week-old chickens, oral twice a day for 5 days, approximately 0.225 mg of SM per kg body weight
Method: Four SMs (T1, T2, T7, and T8) were selected from the initial list of eight SMs based on their low MBC in Caco2 cells (<5 μg SM/ml), low cytotoxicity indexes (<20% toxicity at 5 μg SM /ml), and their minimal effect on commensal bacterial species (less than two species inhibited by the SM out of the seven strains tested; Table 1). The antimicrobial efficacy of our SM was tested on 5-week-old chickens, to assess the clearance of C. jejuni load right before slaughter age. Overall, 5-week-old Campylobacter-free, i.e., specific pathogen-free [SPF] chickens were inoculated orally with a mixture of five C. jejuni strains (10^5 CFU/chicken, Supplementary Table S3). Rectal swabs were collected 1 day post-inoculation (DPI) to confirm C. jejuni colonization (CFU/g of feces) in birds. From 2 DPI to 7 DPI, groups of 4–5 chickens were treated orally twice a day with one of the four SMs (T1, T2, T7, or T8; approximately 0.225 mg of SM per kg body weight). Details of the treatment groups and the inoculum are shown in Supplementary Table S3.
(§1) For both experiments, C. jejuni colonized-chickens treated with 0.0001% DMSO and colonized chickens without additional carrier treatment (non-treated) were used as controls (n = 3–6 chicken per group). Details of the treatment groups and the inoculum are shown in Supplementary Table S3. Both 3 and 5-week-old chickens were euthanized at 7 DPI using carbon dioxide gas and ceca (cecal content and the pouch) and were aseptically collected. One of the ceca pairs was immediately stored at −80°C for microbiota studies. The other ceca were suspended in 1X PBS, homogenized, serially diluted, plated on MH media supplemented with Campylobacter Selective Supplement (CSS) agar plate, and incubated for 48 h at 42°C in microaerophilic conditions to determine C. jejuni load in the ceca (CFU/g of ceca).

[3] = test system: C. jejuni (mixture of five strains) in chicken ceca; experiment: C. jejuni persistence in ceca of 3-week-old colonized chickens; assay type: in vivo; settings: 3-week-old chickens, oral twice a day for 5 days, approximately 0.127 mg of SM per kg body weight
Method: The antimicrobial efficacy of T1, T7, and T8 was also tested on 3-week-old chickens to assess the clearance of C. jejuni load in chicken right after inoculation. Overall, 3-week-old Campylobacter-free chickens were inoculated orally with a mixture of five C. jejuni strains (10^5 CFU/chicken, Supplementary Table S3). Rectal swabs were collected 1 DPI to confirm the intestinal colonization of the birds by C. jejuni (CFU/g of feces). From 2 DPI, chickens were treated orally twice a day for 5 days (from 2 DPI to 7 DPI) with one of the SMs (T1, T7, or T8; approximately 0.127 mg of SM per kg body weight; n = 5–6 chicken per group). Details of the treatment groups and the inoculum are shown in Supplementary Table S3.
as §1, with “The other ceca were suspended in 1X PBS, homogenized, serially diluted, plated on MH media supplemented with Campylobacter Selective Supplement (CSS) agar plate, and incubated for 48 h at 42°C in microaerophilic conditions to determine C. jejuni load in the ceca (CFU/g of ceca).” left out

SMILES	Growth inhibition at 6.25 μg/mL, Commensal/beneficial gut bacteria (strains inhibited/tested) [1]	Commensal/beneficial gut bacteria inhibited at 6.25 μg/mL (species) [1]	decrease of cecal C. jejuni colonization/load [2]	reduction in C. jejuni population per gram of cecum compared with the DMSO control group [2]	reduction in C. jejuni population per gram of cecal contents compared with the DMSO-treated group [3]
CSc1ccccc1-c1nnc(NC(=O)Cc2ccccc2)o1 [T7]	1/7	LGG	up to 1.2 log	0.5 log	0.9 log
CCCNC(=S)Nc1cc(OC)cc(OC)c1 [T1]	0/7	–	–	did not reduce	–
CCN(CC)/C(C)=N/C(=O)Nc1ccccc1 [T8]	2/7	Lb and Ef	–	0.5 log	–
CC(C)(C)NC(=S)NNc1c(Cl)cncc1Cl [T2]	2/7	Lb and Ef	up to 1.2 log	1.2 log	–
